The assay concerns Mycobacterium smegmatis recombinant strains. The assay can be described thus: microbe, parasite or virus in culture. The format is cell-based. The settings on record: Mycolicibacterium smegmatis, read-out: RFP MIC.

Consider 1 compound from patent publication US20080187922A1 (priority 2006, published 2008).

Structures are written as SMILES. ≈ marks a conversion by molar mass, not a printed value.

In the case of `CO[C@H]1/C=C/O[C@@]2(C)Oc3c(C)c(O)c4c(O)c(c(/C=N/N5CCN(C)CC5)c(O)c4c3C2=O)NC(=O)/C(C)=C\C=C\[C@H](C)[C@H](O)[C@@H](C)[C@@H](O)[C@@H](C)[C@H](OC(C)=O)[C@@H]1C` [RFP, 3-(4-Methylpiperazinyliminomethyl)-rifamycin], the MIC came out at 150 µg/mL (≈ 182 µM).
